Consider 1 compound from patent publication US9895438B2, “Treatment of cancer with naltrexone” (Cancer Vaccine Institute, priority 2013, dated 2018).

Assay [1] deals with metastatic melanoma. The assay can be described thus: Patient with chemotherapy-resistant metastatic melanoma treated with LDN.
Assay [2] addresses T1, TLR4 (Homo sapiens, UniProt O00206+Q9Y6Y9).
T1 construct: host or cells: HEK-293
The assay can be described thus: TLR4 antagonist assay, HEK-293 transfectants with alkaline phosphatase reporter gene (Invivogen panel). It counts as cell-based. As to conditions: 1 μM naltrexone, O.D. readout (FIG. 1). Here is the method: (§1) Samples and controls were tested in duplicate on recombinant HEK-293 cell lines expressing the various TLR and NOD receptors with an alkaline phosphatase reporter gene. Cells were incubated with or without 1 μM naltrexone in an antagonist assay using the Invivogen panel of TLR and NOD signalling transfectants. Results shown are for TLR4 and TLR9, TLR activation results are given as optical density (O.D.) values, which have been confirmed in three independent experiments.
(§2) Low dose naltrexone (LDN) was tested in agonist and antagonist assays on a panel of TLR and NOD transfectants (TLR2, TLR3, TLR4, TLR5, TLR7, TLR8, TLR9, NOD1, NOD2). Screening assays were performed by Cayla-Invivogen (Toulouse, France).

For assay [3], the system named is hormone-refractory prostate cancer. Briefly: Patient with hormone-refractory prostate cancer treated with Mycobacterium vaccae plus LDN. As to conditions: one patient, LDN added to Mycobacterium vaccae treatment. It counts as in vivo, human.
The target in assay [4] is T1, TLR4. As to conditions: Hutchinson et al. (2008); cited from earlier work.
For assay [5], the system named is TLR2, TLR3, TLR4, TLR5, TLR7, TLR8, TLR9, NOD1, NOD2. Briefly: Agonist assays on panel of TLR and NOD transfectants. It counts as cell-based. As to conditions: TLR2, 3, 4, 5, 7, 8, 9, NOD1, NOD2. Here is the method: as §1, §2
For assay [6], the target named is T2, TLR9 (Homo sapiens, UniProt Q9NR96).
T2 construct: host or cells: HEK-293
T2 sequence (Q9NR96 26-1032): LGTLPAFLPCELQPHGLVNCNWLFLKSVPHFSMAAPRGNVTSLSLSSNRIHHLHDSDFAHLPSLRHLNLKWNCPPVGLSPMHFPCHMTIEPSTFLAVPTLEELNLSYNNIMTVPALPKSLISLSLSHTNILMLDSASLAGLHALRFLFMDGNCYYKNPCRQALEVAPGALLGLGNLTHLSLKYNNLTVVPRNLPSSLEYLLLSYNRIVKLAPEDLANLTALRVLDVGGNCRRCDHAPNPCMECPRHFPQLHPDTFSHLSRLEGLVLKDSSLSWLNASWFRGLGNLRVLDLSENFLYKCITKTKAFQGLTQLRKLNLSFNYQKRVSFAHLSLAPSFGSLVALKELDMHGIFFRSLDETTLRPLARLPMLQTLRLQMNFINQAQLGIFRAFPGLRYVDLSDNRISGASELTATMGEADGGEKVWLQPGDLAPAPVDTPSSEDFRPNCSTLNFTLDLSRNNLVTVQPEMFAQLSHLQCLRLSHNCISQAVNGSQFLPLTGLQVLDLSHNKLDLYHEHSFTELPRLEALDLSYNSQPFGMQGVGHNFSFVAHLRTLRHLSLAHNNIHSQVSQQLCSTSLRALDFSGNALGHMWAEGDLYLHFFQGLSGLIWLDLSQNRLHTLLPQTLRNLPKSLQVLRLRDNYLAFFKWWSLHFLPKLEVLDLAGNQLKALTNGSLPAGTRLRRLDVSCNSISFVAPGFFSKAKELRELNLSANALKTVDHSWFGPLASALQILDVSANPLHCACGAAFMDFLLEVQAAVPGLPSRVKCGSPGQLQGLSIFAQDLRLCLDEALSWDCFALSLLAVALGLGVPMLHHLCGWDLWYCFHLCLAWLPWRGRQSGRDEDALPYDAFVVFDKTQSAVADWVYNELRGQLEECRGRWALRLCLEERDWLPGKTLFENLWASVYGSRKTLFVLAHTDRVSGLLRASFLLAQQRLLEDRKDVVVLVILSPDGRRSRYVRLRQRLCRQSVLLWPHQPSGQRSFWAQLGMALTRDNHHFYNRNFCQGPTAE
The assay can be described thus: TLR9 antagonist assay, HEK-293 transfectants with alkaline phosphatase reporter gene (Invivogen panel). It counts as cell-based. Here is the method: as §1, §2

Entries after “also recorded” stand apart in the source; their conditions may differ. Like-named read-outs stand apart in the source and are kept apart here.

T1 sequence (O00206 24-839, species assumed): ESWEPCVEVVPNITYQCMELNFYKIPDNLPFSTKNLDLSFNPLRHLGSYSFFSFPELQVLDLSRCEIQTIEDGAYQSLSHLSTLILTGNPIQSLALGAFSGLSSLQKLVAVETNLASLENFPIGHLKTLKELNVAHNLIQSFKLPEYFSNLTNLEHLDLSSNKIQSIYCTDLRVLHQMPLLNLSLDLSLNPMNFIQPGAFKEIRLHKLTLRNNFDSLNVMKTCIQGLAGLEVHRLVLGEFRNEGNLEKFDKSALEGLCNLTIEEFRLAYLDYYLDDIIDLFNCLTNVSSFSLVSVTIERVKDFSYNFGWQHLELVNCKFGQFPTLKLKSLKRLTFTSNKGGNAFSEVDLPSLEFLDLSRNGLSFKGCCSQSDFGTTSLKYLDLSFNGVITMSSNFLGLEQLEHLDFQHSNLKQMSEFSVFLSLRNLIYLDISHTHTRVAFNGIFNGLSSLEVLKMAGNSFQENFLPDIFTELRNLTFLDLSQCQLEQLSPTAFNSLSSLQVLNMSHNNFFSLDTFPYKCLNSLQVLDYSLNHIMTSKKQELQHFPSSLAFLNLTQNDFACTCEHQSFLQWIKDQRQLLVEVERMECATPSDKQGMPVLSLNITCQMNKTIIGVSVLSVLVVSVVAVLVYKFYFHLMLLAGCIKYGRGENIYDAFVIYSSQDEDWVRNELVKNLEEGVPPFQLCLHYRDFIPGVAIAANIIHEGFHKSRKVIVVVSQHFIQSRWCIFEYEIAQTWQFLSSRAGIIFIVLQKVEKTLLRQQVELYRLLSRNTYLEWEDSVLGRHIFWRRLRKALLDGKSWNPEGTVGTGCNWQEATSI
T1 sequence (Q9Y6Y9 17-160 limits assumed, species assumed): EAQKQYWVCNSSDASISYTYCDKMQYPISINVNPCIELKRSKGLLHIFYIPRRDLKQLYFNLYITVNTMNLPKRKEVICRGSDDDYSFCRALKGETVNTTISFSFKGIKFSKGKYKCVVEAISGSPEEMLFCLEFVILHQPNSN

Take `O=C1CC[C@@]2(O)[C@H]3Cc4ccc(O)c5c4[C@@]2(CCN3CC2CC2)[C@H]1O5` [LDN, morphinan-6-one,17-(cyclopropylmethyl)-4,5-epoxy-3,14-dihydroxy-(5α)]: the “time to development of vitiligo” value in assay [1] (after administration of low dose naltrexone) was ≤ 48 h. For the same compound, the “development of vitiligo (sign of activated cytotoxic T cells against melanoma antigens)” value in assay [1] (one patient previously given vaccine and radiotherapy, LDN as supportive treatment prior to more radiotherapy) is recorded as “marked vitiligo”. The “antagonism of TLR4” value in assay [2] is listed as “mild antagonistic effect; also recorded: mild antagonist effect”; in assay [4], “weakly antagonise TLR4”. In addition, in assay [3], the prostate-specific antigen levels result is given as “drop in prostate-specific antigen levels”. The “stimulation of signalling (agonism) through TLR and NOD receptors” value in assay [5] was “did not stimulate signalling through any of the receptors tested”. Also, the “antagonism of TLR9 (recognition of CpG DNA)” value in assay [6] (antagonist assay, 1 μM naltrexone, O.D. readout (FIG. 1)) is on record as “striking antagonistic effect; also recorded: inhibited recognition of CpG DNA”. Further, in assay [6] (titration, TLR9-transfected cell line, naltrexone diluted in PBS or H2O (FIG. 2), read-out: IC50 for inhibition of TLR9), the IC50 (in general, the midpoint of a concentration-inhibition curve) was ~50 µM.
